Laboratory results reported in paper doi:10.1101/141937v1 (biorxiv, 2017).

Target: T1, EmrE (Escherichia coli, UniProt P23895)
T1 sequence (P23895 1-110): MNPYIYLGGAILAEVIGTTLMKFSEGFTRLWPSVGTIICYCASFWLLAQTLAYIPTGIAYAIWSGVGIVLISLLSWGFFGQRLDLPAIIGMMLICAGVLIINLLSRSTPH
Test: biochemical

c1ccc([P+](c2ccccc2)(c2ccccc2)c2ccccc2)cc1 [TPP^+]
Kd: 70 ± 9 µM
